The values that follow come from patent publication US10450288B2, “Hydroxy formamide derivatives and their use” (GLAXOSMITHKLINE INTELLECTUAL PROPERTY (NO.2) LIMITED, priority 2014, dated 2019).

The subject of one experiment is human cardiac fibroblasts. Kind of experiment: Cell-based inhibition assay of generation of procollagen I C-terminal propeptide (PICP), PICP ELISA. The conditions noted are these: Cardiac fibroblast; human cardiac fibroblasts, crowding media, 24 to 48 hr, PICP ELISA of media; read-out: pIC50, PICP cellular inhibition assay (converted). The protocol:
Cell-Based Inhibition Assay of Generation of Procollagen I C-Terminal Propeptide (PICP) and Mature Collagen:
An adaptation of the collagen deposition assay described by Chen, C. Z. C., et al., British Journal of Pharmacology, 2009, 158, 1196-1209 was used to examine effect of compounds on procollagen I processing and collagen deposition. In the adapted assay, human cardiac fibroblasts were utilized. Processing of procollagen I was determined by a PICP ELISA assay and deposition of mature collagen was determined by immunostaining.
Human cardiac fibroblasts were cultured and maintained until passage 6 in FGM-3 media (Lonza, #CC-3132) in a 37° C. humidified incubator with 5% CO2. They were then seeded in 96-well black wall, clear bottom plates at 10,000 to 15,000 cells per well in eagle's minimum essential media (EMEM, ATCC #30-2003) containing 10% fetal bovine serum (FBS, Life Technologies #10082147), 1% Glutamax (Life Technologies #35050061) and 1% Penicillin and Streptomycin (Life Technologies #15070063). These cultures were placed in 37° C. incubator. The next day, media were removed by aspiration and cells were rinsed with phosphate buffered saline. Crowding media (also called ficoll media) was prepared by adding 112.5 mg/ml of ficoll70 and 75 mg/ml ficoll400 (GE healthcare #17-0310-10 and 17-0300-10, respectively), 100 μM ascorbic acid, 1% Glutamax and 1% Penicillin and Streptomycin to EMEM media. Test compounds (dissolved in DMSO) were diluted into crowding media and then added to the cells. Final concentration of DMSO in crowding media was less than 0.3%. Cells were treated for 24 to 48 hr in a 37° C. incubator. At the end of the treatment period, cell media were collected. The level of PICP in the media were determined by a PICP ELISA assay (Quidel #8003) following the manufacturer's protocol. Potencies of test compounds were calculated by fitting PICP levels, relative to untreated controls, to log (inhibitor) vs. response equation using Graphpad Prism software 5.0 and expressed as pIC50.
For orientation: In an ELISA, binding on a coated surface is turned into a signal by an enzyme label.
On to `CCCCC[C@@H](C(=O)NCNC(=O)c1ccc(-c2ccc(CC(=O)O)cc2)o1)[C@@H](CC)N(O)C=O` [Example 42, 2-(4-(5-((((R)-2-((R)-1-(N-hydroxyformamido)propyl)heptanamido)methyl)carbamoyl)furan-2-yl)phenyl)acetic acid], for which the IC50 was < 3.98 µM. Take `CCCCC[C@@H](C(=O)NCNC(=O)c1ccc(-c2ccc(C(=O)N[C@@H](CCC(=O)O)C(=O)O)cc2)o1)[C@@H](CC)N(O)C=O` [Example 134, (S)-2-(4-(5-((((R)-2-((R)-1-(N-hydroxyformamido)propyl)heptanamido)methyl)carbamoyl)furan-2-yl)benzamido) pentanedioic acid]: the IC50 is < 3.98 µM. On the same count and under the same terms, in the case of `CCCCC[C@@H](C(=O)NCNC(=O)c1ccc(-c2cc(OCC)cc(C(=O)NCP(=O)(O)O)c2)o1)[C@@H](CC)N(O)C=O` [Example 100, ((3-ethoxy-5-(5-((((R)-2-((R)-1-(N-hydroxy-formamido)propyl)heptanamido)methyl)carbamoyl)furan-2-yl)benzamido)methyl) phosphonic acid] it was < 3.98 µM. Same read-out and setting: next, `CCCCC[C@@H](C(=O)NCNC(=O)c1ccc(-c2ccc(C(=O)N[C@H](CC(=O)O)C(=O)O)cc2)o1)[C@@H](CC)N(O)C=O` [Example 133]: < 3.98 µM. The same measure, in the same setting: next, `CCCCC[C@H](CN(O)C=O)C(=O)NCNC(=O)c1ccc(-c2cccc(C(=O)O)c2F)o1` [Example 59, (R)-2-fluoro-3-(5-(((2-((N-hydroxyformamido)methyl)heptanamido)methyl)carbamoyl)furan-2-yl)benzoic acid]: < 3.98 µM; `CCCCC[C@H](CN(O)C=O)C(=O)NCNC(=O)c1ccc(-c2cccc(CC(=O)O)c2)o1` [Example 60, (R)-2-(3-(5-(((2-((N-hydroxyformamido)methyl)heptanamido)methyl)carbamoyl)furan-2-yl)phenyl)acetic acid]: < 3.98 µM. Consider `CCCCC[C@@H](C(=O)NCNC(=O)c1ccc(-c2cc(O)cc(P(=O)(O)O)c2)o1)[C@@H](CC)N(O)C=O` [Example 138, (3-hydroxy-5-(5-((((R)-2-((R)-1-(N-hydroxyformamido)propyl)heptanamido)methyl)carbamoyl)furan-2-yl)phenyl) phosphonic acid], for which the IC50 was < 3.98 µM. Turning to `CC[C@H]([C@@H](CCc1ccc(F)cc1F)C(=O)NCNC(=O)c1ccc(-c2cc(OCC(=O)O)cc(C(=O)O)c2O)o1)N(O)C=O` [Example 118, 5-(carboxymethoxy)-3-(5-((((2R,3R)-2-(2,4-difluorophenethyl)-3-(N-hydroxyformamido)pentanamido)methyl)carbamoyl)furan-2-yl)-2-hydroxybenzoic acid], the IC50 is < 3.98 µM.

In the case of `CCCCC[C@@H](C(=O)NCNC(=O)c1ccc(-c2cc(OCC)cc(C(=O)N[C@@H](CCC(=O)O)C(=O)OC(C)(C)C)c2)o1)[C@@H](CC)N(O)C=O` [Example 45, (S)-5-(tert-butoxy)-4-(3-ethoxy-5-(5-((((R)-2-((R)-1-(N-hydroxyformamido)propyl)heptanamido)methyl)carbamoyl)furan-2-yl)benzamido)-5-oxopentanoic acid], the IC50 is < 3.98 µM.

As for `CCCCC[C@H](CN(O)C=O)C(=O)NCNC(=O)c1ccc(-c2cccc(C(=O)OC)c2)o1` [Example 16, (R)-methyl 3-(5-(((2-((N-hydroxyformamido)methyl)heptanamido)methyl)carbamoyl)furan-2-yl)benzoate], the IC50 was < 3.98 µM. On the same count and under the same terms, in the case of `CCCCC[C@@H](C(=O)NCNC(=O)c1ccc(-c2ccc(C(=O)O)c(C(=O)O)c2)o1)[C@@H](CC)N(O)C=O` [Example 129, 4-(5-((((R)-2-((R)-1-(N-hydroxyformamido)propyl)heptanamido)methyl)carbamoyl)furan-2-yl)phthalic acid] it was < 3.98 µM; in that of `CCCCC[C@H](CN(O)C=O)C(=O)NCNC(=O)c1ccc(-c2ccc(C(=O)O)cc2)o1` [Example 92, (R)-4-(5-(((2-((N-hydroxyformamido)methyl)heptanamido)methyl)carbamoyl)furan-2-yl)benzoic acid], < 3.98 µM; in that of `CCCCC[C@H](CN(O)C=O)C(=O)NCNC(=O)c1ccc(-c2cccc(C(C)C(=O)O)c2)o1` (stereo partly drawn) [Example 76, 2-(3-(5-((((R)-2-((N-hydroxyformamido)methyl)heptanamido)methyl)carbamoyl)furan-2-yl)phenyl)propanoic acid], < 3.98 µM. Consider `CCCCC[C@@H](C(=O)NCNC(=O)c1ccc(-c2cc(OCC(=O)O)cc(P(=O)(O)O)c2)o1)[C@@H](CC)N(O)C=O` [Example 145, 2-(3-(5-((((R)-2-((R)-1-(N-hydroxyformamido)propyl)heptanamido)methyl)carbamoyl)furan-2-yl)-5-phosphonophenoxy) acetic acid], for which the IC50 was < 3.98 µM. The same measure, in the same setting: next, `CCCCC[C@H](CN(O)C=O)C(=O)NCNC(=O)c1ccc(-c2cccc(S(N)(=O)=O)c2)o1` [Example 12, (R)-N-((2-((N-hydroxyformamido)methyl)heptanamido)methyl)-5-(3-sulfamoylphenyl)furan-2-carboxamide]: < 3.98 µM; `CCCCC[C@H](CN(O)C=O)C(=O)NCNC(=O)c1ccc(-c2cccc(S(=O)(=O)NC(=O)CC)c2)o1` [Example 28, (R)-N-((2-((N-hydroxyformamido)methyl)heptanamido)methyl)-5-(3-(N-propionylsulfamoyl)phenyl)furan-2-carboxamide]: < 3.98 µM; `CCCCC[C@H](CN(O)C=O)C(=O)NCNC(=O)c1ccc(-c2cc(OCC)cc(C(=O)OC)c2)o1` [Example 26]: < 3.98 µM. Regarding `CCCCC[C@@H](C(=O)NCNC(=O)c1ccc(-c2ccc(C(=O)NCP(=O)(O)O)cc2)o1)[C@@H](CC)N(O)C=O` [Example 143, ((4-(5-((((R)-2-((R)-1-(N-hydroxyformamido)propyl)heptanamido)methyl)carbamoyl)furan-2-yl)benzamido)methyl)phosphonic acid], the IC50 was < 3.98 µM. As to `CCCCC[C@@H](C(=O)NCNC(=O)c1ccc(-c2ccc(C(=O)O)c(OCC)c2)o1)[C@@H](CC)N(O)C=O` [Example 1, 2-ethoxy-4-(5-((((R)-2-((R)-1-(N-hydroxyformamido)propyl)heptanamido)methyl)carbamoyl)furan-2-yl)benzoic acid], the IC50 was < 3.98 µM.

`CCCCC[C@@H](C(=O)NCNC(=O)c1ccc(-c2ccc(C(=O)N[C@@H](CC(=O)O)C(=O)O)cc2)o1)[C@@H](CC)N(O)C=O` [Example 119, (S)-2-(4-(5-((((R)-2-((R)-1-(N-hydroxyformamido)propyl)heptanamido)methyl)carbamoyl)furan-2-yl)benzamido) succinic acid]: the IC50 was < 3.98 µM. For the compound `CCOc1cc(-c2ccc(C(=O)NCNC(=O)[C@H](CCc3ccc4ccccc4c3)[C@@H](CC)N(O)C=O)o2)cc(P(=O)(O)O)c1` [Example 141], the IC50 is < 3.98 µM. Turning to `CCCCC[C@@H](C(=O)NCNC(=O)C1CCC(c2cc(OCC)cc(P(=O)(O)O)c2)O1)[C@@H](CC)N(O)C=O` (stereo partly drawn) [Example 97, (3-ethoxy-5-(5-((((R)-2-((R)-1-(N-hydroxyformamido)propyl)heptanamido)methyl)carbamoyl)tetrahydrofuran-2-yl)phenyl)phosphonic acid], the IC50 was < 3.98 µM. Same read-out and setting: in the case of `CCCCC[C@H](CN(O)C=O)C(=O)NCNC(=O)c1ccc(-c2ccc(F)c(C(=O)O)c2)o1` [Example 91, (R)-2-fluoro-5-(5-(((2-((N-hydroxy-formamido)methyl)heptanamido)methyl)carbamoyl)furan-2-yl)benzoic acid] it was < 3.98 µM. Turning to `CCCCC[C@H](CN(O)C=O)C(=O)NCNC(=O)c1ccc(-c2cccc(OC(C)C)c2)o1` [Example 25, (R)-N-((2-((N-hydroxyformamido)methyl)heptanamido)methyl)-5-(3-isopropoxyphenyl)furan-2-carboxamide], the IC50 is < 3.98 µM.

The same experiment, now with this note: Homo sapiens, Cardiac fibroblast, read-out: pIC50, PICP cellular inhibition assay (converted).
With `CCCCC[C@@H](C(=O)NCNC(=O)c1ccc(-c2cc(OCC)cc(P(=O)(OC)OC)c2)o1)[C@@H](CC)N(O)C=O` [Example 50, dimethyl (3-ethoxy-5-(5-((((R)-2-((R)-1-(N-hydroxyformamido)propyl)heptanamido)methyl)carbamoyl)furan-2-yl)phenyl)phosphonate], the IC50 is < 3.98 µM. On the same count and under the same terms, in the case of `CCCCC[C@@H](C(=O)NCNC(=O)c1ccc(-c2cc(OCC)cc(C(=O)NCC[N+](C)(C)C)c2)o1)[C@@H](CC)N(O)C=O` [Example 65, 2-(3-ethoxy-5-(5-((((R)-2-((R)-1-(N-hydroxyformamido)propyl)heptanamido)methyl)carbamoyl)furan-2-yl)benzamido)-N,N,N-trimethylethanaminium hydroxide] it was < 3.98 µM.
